Test results published in patent publication EP1199304A1, “Bicyclic compounds and pharmaceutical composition containing tricyclic compound for treating or preventing sleep disorders” (Takeda Chemical Industries, Ltd., priority 1997, dated 1997).

Target: melatonin receptor
Assay: Inhibition of 2-[125I]iodomelatonin binding (forebrain membrane homogenate)
Design: species or system chicken (white leghorn)
Settings: forebrains of 7-day-old chicken; 80 pM 2-[^125I]iodomelatonin; 90 minutes at 25°C; non-specific binding with 10^-5M melatonin; log-probit analysis; read-out: IC50 (nM), Action of inhibiting 2-[^125I]iodomelatonin binding
Protocol: Inhibition of 2-[^125I]iodomelatonin binding activity
The forebrains of 7-day-old chicken (white leghorn) were homogenized with ice-cold assay buffer (50 mM Tris-HCl, pH 7.7 at 25°C) and centrifuged at 44,000 x g for 10 minutes at 4°C. The pellet was washed once with the same buffer and storred at -30°C until use. For the assay, the frozen tissue pellet was thawed and homogenized with the assay buffer to make a protein concentration of 0.3 - 0.4 mg/ml. An 0.4 ml aliquot of this homogenate was incubated with a test compound and 80 pM 2-[^125I]iodomelatonin in a total volume of 0.5 ml for 90 minutes at 25°C. The reaction was terminated by adding 3 ml of ice-cold assay buffer immediately followed by vaccum filtration on Whatman GF/B which was further washed twice with 3 ml of ice-cold assay buffer. The radioactivity on the filter was determined by means of γ-counter. […] The 50% inhibiting concentration (IC50) was determined by the log-probit analysis.

| IC50 [nM] | SMILES |
| --- | --- |
| 0.28 | CC(=O)NCCC1CCc2ccc3c(c21)CCO3 (stereo not drawn) [Example 1, N-[2-(1,6,7,8-tetrahydro-2H-indeno[5,4-b]furan-8-yl)ethyl]acetamide] |
| 0.13 | CCC(=O)NCCC1CCc2ccc3c(c21)CCO3 (stereo not drawn) [Example 2, N-[2-(1,6,7,8-tetrahydro-2H-indeno[5,4-b]furan-8-yl)ethyl]propionamide] |
| 0.048 | CCC(=O)NCC[C@@H]1CCc2ccc3c(c21)CCO3 [Example 11, (S)-N-[2-(1,6,7,8-tetrahydro-2H-indeno[5,4-b]-furan-8-yl)ethyl]propionamide] |
| 0.082 | CCCC(=O)NCCc1c[nH]c2ccc3c(c12)CCCO3 [Example 5, N-[2-(3,7,8,9-tetrahydropyrano[3,2-e]indol-1-yl)ethyl]butyramide] |
| 0.22 | CCCC(=O)NCCC1CNc2ccc3c(c21)CCCO3 (stereo not drawn) [Example 8, N-[2-(1,2,3,7,8,9-hexahydropyrano[3,2-e]indol-1-yl)ethyl]butyramide] |
| 0.24 | CC(=O)NCCC1=CCc2ccc3c(c21)CCO3 [Example 14, N-[2-(1,6-dihydro-2H-indeno[5,4-b]furan-8-yl)ethyl]acetamide] |
| 0.12 | CCCC(=O)NCCC1CCc2ccc3c(c21)CCO3 (stereo not drawn) [Example 13, N-[2-(1,6,7,8-tetrahydro-2H-indeno[5,4-b]furan-8-yl)ethyl]butyramide] |
| 0.1 | CCC(=O)NCCC1=CCc2ccc3c(c21)CCO3 [Example 15, N-[2-(1,6-dihydro-2H-indeno[5,4-b]furan-8-yl)-ethyl]propionamide] |
| 0.46 | CCC(=O)NCCC1CNc2ccc3c(c21)CCCO3 (stereo not drawn) [Example 7, N-[2-(1,2,3,7,8,9-hexahydropyrano[3,2-e]indol-1-yl)ethyl]propionamide] |
| 0.13 | CCC(=O)NCCc1c[nH]c2ccc3c(c12)CCCO3 [Example 4, N-[2-(3,7,8,9-tetrahydropyrano[3,2-e]indol-1-yl)ethyl]propionamide] |
| 0.095 | CCCC(=O)NCCC1=CCc2ccc3c(c21)CCO3 [Example 16, N-[2-(1,6-dihydro-2H-indeno[5,4-b]furan-8-yl)-ethyl]butyramide] |
| 0.46 | CC(=O)NCCc1c[nH]c2ccc3c(c12)CCCO3 [Example 3, N-[2-(3,7,8,9-tetrahydropyrano[3,2-e]indol-1-yl)ethyl]acetamide] |
